{"source": "patent US10632119B2", "about": "“Fused bicyclic 2,4-diaminopyrimidine derivative as a dual ALK and FAK inhibitor” (priority 2012, dated 2020)", "key": {"Protein binding, mouse": {"assay": "Protein binding, mouse", "format": "in vitro ADME", "settings": "mouse (M)"}, "[1]": {"assay": "In vitro metabolic stability, monkey", "format": "in vitro ADME", "settings": "monkey (Mo); read-out: In vitro metabolic stability t1/2"}, "[2]": {"assay": "In vitro metabolic stability, mouse", "format": "in vitro ADME", "settings": "mouse (M); read-out: In vitro metabolic stability t1/2"}, "Adrenergic α1B (R)": {"target": "Adrenergic α1B (R) (Rattus norvegicus, UniProt P15823)", "assay": "Receptor selectivity (Cerep)", "format": "binding"}, "FAK [3]": {"target": "T1, FAK (Homo sapiens, UniProt Q05397)", "T1 sequence (Q05397 whole entry)": "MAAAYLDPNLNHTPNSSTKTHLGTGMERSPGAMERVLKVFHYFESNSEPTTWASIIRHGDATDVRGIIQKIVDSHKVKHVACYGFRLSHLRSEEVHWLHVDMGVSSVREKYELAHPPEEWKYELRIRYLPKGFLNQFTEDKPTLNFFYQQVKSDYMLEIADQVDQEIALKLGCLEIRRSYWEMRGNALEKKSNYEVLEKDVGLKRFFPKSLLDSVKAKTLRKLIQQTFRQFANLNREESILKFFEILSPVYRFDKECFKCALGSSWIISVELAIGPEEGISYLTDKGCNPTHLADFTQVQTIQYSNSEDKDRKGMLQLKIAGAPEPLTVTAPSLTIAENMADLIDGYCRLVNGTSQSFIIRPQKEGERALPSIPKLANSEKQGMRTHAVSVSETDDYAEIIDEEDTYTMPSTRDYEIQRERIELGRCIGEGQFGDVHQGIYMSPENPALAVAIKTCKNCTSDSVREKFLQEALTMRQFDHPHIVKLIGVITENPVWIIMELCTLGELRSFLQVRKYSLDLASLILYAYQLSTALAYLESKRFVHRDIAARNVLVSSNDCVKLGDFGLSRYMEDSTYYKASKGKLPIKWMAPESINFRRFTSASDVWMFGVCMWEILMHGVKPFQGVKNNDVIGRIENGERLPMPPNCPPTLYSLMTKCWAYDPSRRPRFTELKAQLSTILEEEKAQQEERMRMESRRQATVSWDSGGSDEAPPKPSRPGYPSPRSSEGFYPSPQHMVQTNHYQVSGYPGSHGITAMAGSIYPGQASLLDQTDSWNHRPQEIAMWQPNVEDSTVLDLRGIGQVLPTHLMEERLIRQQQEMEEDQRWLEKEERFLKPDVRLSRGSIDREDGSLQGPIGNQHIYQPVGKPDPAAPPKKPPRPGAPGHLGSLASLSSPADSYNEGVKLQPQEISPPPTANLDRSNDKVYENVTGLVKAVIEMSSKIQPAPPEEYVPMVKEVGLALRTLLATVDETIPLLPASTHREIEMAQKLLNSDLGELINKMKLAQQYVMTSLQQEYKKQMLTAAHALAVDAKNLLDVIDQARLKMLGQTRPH", "assay": "FAK cellular assay", "format": "cell-based"}, "hERG": {"target": "hERG (Homo sapiens, UniProt Q12809)", "sequence (Q12809 whole entry)": "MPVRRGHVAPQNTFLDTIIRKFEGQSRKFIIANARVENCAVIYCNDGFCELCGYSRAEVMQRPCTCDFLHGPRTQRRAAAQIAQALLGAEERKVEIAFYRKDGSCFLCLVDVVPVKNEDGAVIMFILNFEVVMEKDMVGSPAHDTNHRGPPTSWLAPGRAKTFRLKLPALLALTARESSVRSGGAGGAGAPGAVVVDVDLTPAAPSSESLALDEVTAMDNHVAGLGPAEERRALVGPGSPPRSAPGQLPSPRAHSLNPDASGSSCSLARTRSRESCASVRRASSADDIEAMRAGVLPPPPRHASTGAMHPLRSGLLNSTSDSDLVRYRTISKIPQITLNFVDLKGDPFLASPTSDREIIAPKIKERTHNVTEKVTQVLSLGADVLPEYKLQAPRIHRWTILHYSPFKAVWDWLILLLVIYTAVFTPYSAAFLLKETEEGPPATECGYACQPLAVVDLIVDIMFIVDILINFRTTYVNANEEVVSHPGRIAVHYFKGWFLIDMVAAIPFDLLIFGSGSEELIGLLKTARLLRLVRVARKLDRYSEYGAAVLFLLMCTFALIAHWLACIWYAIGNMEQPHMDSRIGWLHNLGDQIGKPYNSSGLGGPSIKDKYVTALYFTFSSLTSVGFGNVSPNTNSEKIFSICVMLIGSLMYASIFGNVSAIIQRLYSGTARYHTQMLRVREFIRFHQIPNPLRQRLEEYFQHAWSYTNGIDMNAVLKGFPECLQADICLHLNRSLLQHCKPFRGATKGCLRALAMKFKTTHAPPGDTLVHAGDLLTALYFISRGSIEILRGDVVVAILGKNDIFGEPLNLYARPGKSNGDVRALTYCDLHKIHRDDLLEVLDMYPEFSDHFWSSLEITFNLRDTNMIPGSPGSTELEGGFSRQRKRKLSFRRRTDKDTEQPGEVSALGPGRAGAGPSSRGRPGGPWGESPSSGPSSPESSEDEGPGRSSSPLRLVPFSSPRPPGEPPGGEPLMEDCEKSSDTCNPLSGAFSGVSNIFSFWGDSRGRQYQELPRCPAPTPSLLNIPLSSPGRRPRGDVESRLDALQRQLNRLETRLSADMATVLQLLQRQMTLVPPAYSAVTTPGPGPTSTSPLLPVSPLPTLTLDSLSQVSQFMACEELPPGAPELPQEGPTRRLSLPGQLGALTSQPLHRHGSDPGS", "assay": "hERG patch clamp", "format": "cell-based"}, "FAK [4]": {"target": "T1, FAK", "assay": "FAK enzymatic assay", "format": "biochemical"}, "Protein binding, dog": {"assay": "Protein binding, dog", "format": "in vitro ADME", "settings": "dog (D)"}, "[5]": {"experimental": "Five animals/sex were assigned to each dose group and were given daily oral doses of 0 (vehicle), 20, 40 or 80 mg/kg for up to 91 days. […] Three animals/sex/group were scheduled for termination at the end of the dosing period (Day 92) and two animals/sex/group were assigned to a 6-week non-dosing recovery phase and were terminated on Day 134.\nUrine samples for urinalysis only were obtained by bladder puncture during necropsy. Urine samples for urinalysis and urine chemistry analysis were also obtained by drainage from special stainless-steel cage pans in Weeks −1, 1, 4, and 13, and from the remaining animals near the end of the recovery period.\nBlood samples were collected for toxicokinetic analysis at various time points on Day 1 and during Weeks 4 and 13. […] At termination, a full necropsy was conducted on all animals, and tissues were collected, preserved, processed, and examined microscopically by a Veterinary Pathologist certified by the American College of Veterinary Pathologists."}, "CYP 1A2": {"target": "CYP 1A2 (Homo sapiens, UniProt P05177)", "sequence (P05177 whole entry)": "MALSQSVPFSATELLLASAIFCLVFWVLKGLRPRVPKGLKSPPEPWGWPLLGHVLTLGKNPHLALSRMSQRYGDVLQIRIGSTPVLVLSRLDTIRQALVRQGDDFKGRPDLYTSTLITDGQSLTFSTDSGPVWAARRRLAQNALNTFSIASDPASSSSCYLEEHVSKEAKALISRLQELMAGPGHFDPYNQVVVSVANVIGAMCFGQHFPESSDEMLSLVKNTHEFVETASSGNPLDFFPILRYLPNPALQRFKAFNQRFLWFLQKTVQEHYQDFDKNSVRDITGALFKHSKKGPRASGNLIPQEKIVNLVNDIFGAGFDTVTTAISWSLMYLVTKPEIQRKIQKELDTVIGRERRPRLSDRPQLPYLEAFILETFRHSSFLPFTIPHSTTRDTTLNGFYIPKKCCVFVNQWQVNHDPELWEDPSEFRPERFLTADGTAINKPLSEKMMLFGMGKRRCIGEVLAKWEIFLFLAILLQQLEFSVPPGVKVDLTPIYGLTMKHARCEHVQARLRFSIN", "assay": "CYP inhibition", "format": "in vitro ADME"}, "[6]": {"assay": "In vitro metabolic stability, human", "format": "in vitro ADME", "settings": "human (H); read-out: In vitro metabolic stability t1/2"}, "Monkey bioavailability": {"assay": "Monkey bioavailability", "settings": "in vivo, po"}, "CYP 2C9": {"target": "CYP 2C9 (Homo sapiens, UniProt P11712)", "sequence (P11712 whole entry)": "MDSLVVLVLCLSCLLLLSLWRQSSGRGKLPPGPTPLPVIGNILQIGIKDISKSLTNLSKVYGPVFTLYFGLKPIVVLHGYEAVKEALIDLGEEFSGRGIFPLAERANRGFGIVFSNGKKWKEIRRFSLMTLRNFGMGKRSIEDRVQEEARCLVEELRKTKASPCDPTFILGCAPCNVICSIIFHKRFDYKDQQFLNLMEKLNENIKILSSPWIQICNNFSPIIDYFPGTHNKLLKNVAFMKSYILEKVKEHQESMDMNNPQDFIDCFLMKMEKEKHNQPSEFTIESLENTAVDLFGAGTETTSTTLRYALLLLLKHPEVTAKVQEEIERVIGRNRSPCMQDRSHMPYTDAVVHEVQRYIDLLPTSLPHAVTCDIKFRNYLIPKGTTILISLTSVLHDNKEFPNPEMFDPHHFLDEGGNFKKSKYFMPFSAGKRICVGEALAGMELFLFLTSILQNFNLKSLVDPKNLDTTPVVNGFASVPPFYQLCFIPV", "assay": "CYP inhibition", "format": "in vitro ADME"}, "[7]": {"assay": "In vitro metabolic stability, rat", "format": "in vitro ADME", "settings": "rat (R); read-out: In vitro metabolic stability t1/2"}, "Equilibrium solubility": {"assay": "Equilibrium solubility", "format": "physicochemical", "settings": "thermodynamic from solid"}, "Rat bioavailability": {"assay": "Rat bioavailability", "settings": "in vivo"}, "[8]": {"assay": "In vitro metabolic stability, dog", "format": "in vitro ADME", "settings": "dog (D); read-out: In vitro metabolic stability t1/2"}, "Mouse bioavailability": {"assay": "Mouse bioavailability", "format": "in vivo", "settings": "CEP-37440 as amorphous HCl salt"}, "CYP 2D6": {"target": "CYP 2D6 (Homo sapiens, UniProt P10635)", "sequence (P10635 whole entry)": "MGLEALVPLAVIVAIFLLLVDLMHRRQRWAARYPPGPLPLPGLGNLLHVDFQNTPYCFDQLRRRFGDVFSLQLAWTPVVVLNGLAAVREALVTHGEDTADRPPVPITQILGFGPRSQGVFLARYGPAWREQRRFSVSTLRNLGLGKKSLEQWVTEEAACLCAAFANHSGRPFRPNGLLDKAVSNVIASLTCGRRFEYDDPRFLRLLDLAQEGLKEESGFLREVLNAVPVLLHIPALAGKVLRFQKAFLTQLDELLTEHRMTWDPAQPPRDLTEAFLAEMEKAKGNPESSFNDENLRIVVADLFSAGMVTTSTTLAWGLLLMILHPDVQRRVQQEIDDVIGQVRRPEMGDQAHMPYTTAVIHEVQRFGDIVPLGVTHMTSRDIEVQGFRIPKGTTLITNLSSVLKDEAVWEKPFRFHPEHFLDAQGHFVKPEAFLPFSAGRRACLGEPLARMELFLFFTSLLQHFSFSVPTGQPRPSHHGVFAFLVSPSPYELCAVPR", "assay": "CYP inhibition", "format": "in vitro ADME"}, "IR": {"target": "IR (Homo sapiens, UniProt P06213)", "sequence (P06213 28-1382)": "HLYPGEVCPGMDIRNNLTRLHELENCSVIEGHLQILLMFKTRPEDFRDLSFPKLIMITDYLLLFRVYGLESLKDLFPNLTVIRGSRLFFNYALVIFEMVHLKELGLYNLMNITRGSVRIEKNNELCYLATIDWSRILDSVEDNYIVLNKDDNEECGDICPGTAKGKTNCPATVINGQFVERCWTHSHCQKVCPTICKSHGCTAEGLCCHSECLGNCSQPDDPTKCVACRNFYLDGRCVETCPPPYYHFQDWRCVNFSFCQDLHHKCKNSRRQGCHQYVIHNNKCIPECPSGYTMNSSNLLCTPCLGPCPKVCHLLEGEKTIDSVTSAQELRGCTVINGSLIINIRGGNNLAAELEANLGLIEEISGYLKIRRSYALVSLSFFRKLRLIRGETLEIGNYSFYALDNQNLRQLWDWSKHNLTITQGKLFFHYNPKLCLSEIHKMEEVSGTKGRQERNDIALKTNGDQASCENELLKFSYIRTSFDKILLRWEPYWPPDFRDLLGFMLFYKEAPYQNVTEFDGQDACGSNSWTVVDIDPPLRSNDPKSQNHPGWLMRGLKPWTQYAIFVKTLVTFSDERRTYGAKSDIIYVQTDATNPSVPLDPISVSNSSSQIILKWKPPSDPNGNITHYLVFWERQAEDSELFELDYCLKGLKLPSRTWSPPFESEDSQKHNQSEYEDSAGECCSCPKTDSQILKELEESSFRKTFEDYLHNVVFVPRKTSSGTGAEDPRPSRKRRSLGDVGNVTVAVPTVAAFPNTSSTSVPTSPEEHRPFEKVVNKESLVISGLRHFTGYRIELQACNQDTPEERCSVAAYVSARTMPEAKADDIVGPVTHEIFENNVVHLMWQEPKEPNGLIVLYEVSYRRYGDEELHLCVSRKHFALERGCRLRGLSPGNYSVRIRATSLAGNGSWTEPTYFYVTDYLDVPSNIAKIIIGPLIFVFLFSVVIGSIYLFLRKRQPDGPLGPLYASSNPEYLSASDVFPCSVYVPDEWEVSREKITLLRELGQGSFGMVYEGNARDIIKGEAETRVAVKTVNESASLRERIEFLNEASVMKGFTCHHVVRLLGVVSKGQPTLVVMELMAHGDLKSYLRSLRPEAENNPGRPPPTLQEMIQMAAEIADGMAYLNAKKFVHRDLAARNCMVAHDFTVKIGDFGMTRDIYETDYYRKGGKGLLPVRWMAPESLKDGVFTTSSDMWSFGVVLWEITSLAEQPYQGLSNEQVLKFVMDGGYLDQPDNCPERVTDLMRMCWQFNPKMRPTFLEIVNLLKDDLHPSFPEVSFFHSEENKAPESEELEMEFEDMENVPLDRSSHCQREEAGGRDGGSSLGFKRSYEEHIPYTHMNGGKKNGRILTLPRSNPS", "assay": "biochemical"}, "ALK [9]": {"target": "T2, ALK (Homo sapiens, UniProt Q9UM73)", "assay": "ALK cellular assay", "format": "cell-based"}, "ALK [10]": {"target": "T2, ALK", "assay": "ALK enzymatic assay", "format": "biochemical"}, "Caco-2 permeability": {"assay": "Caco-2 permeability", "format": "in vitro ADME", "settings": "human"}, "[11]": {"experimental": "The following parameters and end points were evaluated in this study: clinical signs (mortality/moribundity checks, cage side observations and food consumption, and postdose observations), body weights, veterinary physical examinations, lung evaluations, ophthalmology, electrocardiography, blood pressure and heart rate measurements, clinical pathology parameters (hematology, coagulation, clinical chemistry, urinalysis, urine chemistry, and troponin I analysis), toxicokinetic parameters, gross necropsy findings, organ weights, and histopathologic examinations.", "remark": "listed apart in the source"}, "CYP3A4": {"test_system": "CYP3A4", "assay": "CYP3A4 induction in vitro"}, "in vivo": {"assay": "in vivo", "experimental": "One additional group of 20 animals/sex served as the control and received the vehicle, distilled water. The drug or vehicle was administered to all groups via oral gavage, once a day for 91 consecutive days, at a dose volume of 10 mL/kg/dose. Following the dosing period, five animals/sex/group were maintained for a 4-week recovery period. Additionally, one group of three animals/sex and three groups of nine animals/sex/group served as toxicokinetic (TK) animals and received the vehicle or drug in the same manner and at the same dose levels as the main study groups.\nObservations for morbidity, mortality, injury, and the availability of food and water were conducted at least twice daily for all animals. Clinical observations were conducted on main study animals weekly. Body weights were measured and recorded for all animals prior to initiation of dosing (week −1) and weekly during the study. Food consumption was measured and recorded for main study animals weekly. Ophthalmoscopic examinations were conducted on main study animals pretest and prior to the terminal and recovery necropsies. Blood samples for designated clinical pathology evaluations were collected from main study animals at the end of week 4 and at the terminal and recovery necropsies. Urine samples for urinalysis evaluations were collected from main study animals prior to the terminal and recovery necropsies. Blood samples for determination of the plasma concentrations of the drug were collected from designated TK animals at designated time points on day 1, week 4, and week 13. After the final blood collection, the TK animals were euthanized and the carcasses were discarded. At the end of the terminal and recovery periods, necropsy examinations were performed, organ weights were recorded, and selected tissues were microscopically examined."}, "CYP 2C19": {"target": "CYP 2C19 (Homo sapiens, UniProt P33261)", "assay": "CYP inhibition", "format": "in vitro ADME"}, "Adrenergic α1D (H)": {"target": "Adrenergic α1D (H) (Homo sapiens, UniProt P25100)", "assay": "Receptor selectivity (Cerep)", "format": "binding"}, "Protein binding, human": {"assay": "Protein binding, human", "format": "in vitro ADME", "settings": "human (H)"}, "[12]": {"test_system": "NCI-H3122 NSCLC tumor xenografts", "assay": "Anti-tumor activity, EML4-ALK positive NCI-H3122 NSCLC xenograft", "settings": "for anti-tumor efficacy: 12 days"}, "[13]": {"test_system": "NCI-H2228 NSCLC tumor xenografts", "assay": "Anti-tumor activity, EML4-ALK positive NCI-H2228 NSCLC xenograft", "settings": "for anti-tumor efficacy: 12 days"}}, "note": "Where two headings read alike, the source gives them in different places."}
{"compound": "COc1c(Nc2ncc(Cl)c(N[C@H]3[C@@H](C(N)=O)[C@@H]4C=C[C@H]3C4)n2)ccc2c1CC[C@@H](N1CCOCC1)CC2", "note": "[CEP-28122, (1 S,2S,3R,4R)-3-[5-chloro-2-((S)-1-methoxy-7-morpholin-4-yl-6,7,8,9-tetrahydro-5H-benzocyclohepten-2-ylamino)-pyrimidin-4-ylamino]-bicyclo[2.2.1]hept-5-ene-2-carboxylic acid amide]", "values": [{"measurement": "Protein binding", "setting": "Protein binding, mouse", "value": 95, "unit": "% bound"}, {"measurement": "half-life", "setting": "[1]", "value": "< 5", "unit": "min"}, {"measurement": "half-life", "setting": "[2]", "value": 13.2, "unit": "min"}, {"measurement": "Ki", "setting": "Adrenergic α1B (R)", "value": 2200, "unit": "nM"}, {"measurement": "IC50", "setting": "FAK [3]", "value": 944, "unit": "nM"}, {"measurement": "IC50", "setting": "hERG", "value": "> 10", "unit": "µM"}, {"measurement": "IC50", "setting": "FAK [4]", "value": 29.5, "unit": "nM"}, {"measurement": "Protein binding", "setting": "Protein binding, dog", "value": 96, "unit": "% bound"}, {"measurement": "animals with seizures", "setting": "[5]; 80 mg/kg, Days 9 and/or 10", "value": 2, "unit": "animals"}, {"measurement": "lung gross and histologic findings, early death animals", "setting": "[5]; 20, 40, 80/60 mg/kg", "value": "pulmonary edema was identified in all dose groups"}, {"measurement": "morbidity and mortality", "setting": "[5]; 20, 40, 80/60 mg/kg daily, 91 days", "value": "morbidity and mortality in two animals dosed with 80/60 mg/kg and likely two additional animals"}, {"measurement": "hematology changes", "setting": "[5]; 80/60 mg/kg, from Day 28, returned to baseline by end of recovery", "value": "decrease in lymphocytes"}, {"measurement": "liver enzymes in surviving animals", "setting": "[5]; 80/60 mg/kg, returned to baseline by end of recovery", "value": "increased alanine aminotransferase (ALT) and aspartate aminotransferase (AST)"}, {"measurement": "IC50", "setting": "CYP 1A2", "value": "> 30", "unit": "µM"}, {"measurement": "half-life", "setting": "[6]", "value": 10.3, "unit": "min"}, {"measurement": "bioavailability", "setting": "Monkey bioavailability; 10 mg/kg", "value": 16, "unit": "%"}, {"measurement": "bioavailability", "setting": "Monkey bioavailability; 30 mg/kg", "value": 37, "unit": "%"}, {"measurement": "IC50", "setting": "CYP 2C9", "value": 1300, "unit": "nM"}, {"measurement": "half-life", "setting": "[7]", "value": 6.7, "unit": "min"}, {"measurement": "solubility thermodynamic", "setting": "Equilibrium solubility; pH 2, simulated gastric fluid, read-out: Equilibrium solubility at pH 2", "value": "> 3000", "unit": "µg/mL"}, {"measurement": "solubility thermodynamic", "setting": "Equilibrium solubility; pH 7.4, aqueous buffer, read-out: Equilibrium solubility at pH 7.4", "value": 13, "unit": "µg/mL"}, {"measurement": "Rat bioavailability", "setting": "Rat bioavailability", "value": 25, "unit": "%"}, {"measurement": "half-life", "setting": "[8]", "value": 19.9, "unit": "min"}, {"measurement": "Mouse bioavailability", "setting": "Mouse bioavailability; CD-1 mouse", "value": 51, "unit": "%"}, {"measurement": "Mouse bioavailability", "setting": "Mouse bioavailability; Scid mouse", "value": 71, "unit": "%"}, {"measurement": "IC50", "setting": "CYP 2D6", "value": 17.3, "unit": "µM"}, {"measurement": "IC50", "setting": "IR", "value": 996, "unit": "nM"}, {"measurement": "IC50", "setting": "ALK [9]; 75% human plasma, read-out: ALK cellular IC50 in 75% human plasma", "value": 300, "unit": "nM"}, {"measurement": "IC50", "setting": "ALK [9]; 75% murine plasma, read-out: ALK cellular IC50 in 75% murine plasma", "value": 300, "unit": "nM"}, {"measurement": "IC50", "setting": "ALK [9]; read-out: ALK cellular IC50", "value": 30, "unit": "nM"}, {"measurement": "IC50", "setting": "ALK [10]", "value": 3, "unit": "nM"}, {"measurement": "Papp", "setting": "Caco-2 permeability", "value": 12.6, "unit": "×10⁻⁶ cm/s"}, {"measurement": "morbidity or mortality", "setting": "[11]; 3, 10, 20, 40 mg/kg/day oral, 4 weeks", "value": "did not result in any morbidity or mortality"}, {"measurement": "dose levels with vacuolated cells in the lungs still present after 4-week recovery", "setting": "[11]; both, cynomolgus monkey, in vivo", "value": "≥ 20", "unit": "mg/kg/day"}, {"measurement": "dose levels with histological effects in the lung (vacuolated cells, increased lung weight)", "setting": "[11]; both, cynomolgus monkey, in vivo, po, 4 weeks", "value": "≥ 10", "unit": "mg/kg/day"}, {"measurement": "CYP3A4 induction in vitro", "setting": "CYP3A4; @ 0.3 μM", "value": 0.95, "unit": "fold"}, {"measurement": "CYP3A4 induction in vitro", "setting": "CYP3A4; @ 3.0 μM", "value": 1.3, "unit": "fold"}, {"measurement": "drug-related deaths", "setting": "in vivo; 30, 75, 150 mg/kg/day oral, 91 days", "value": "no drug-related deaths"}, {"measurement": "dosages with adverse histopathological effects in the kidney persisting through 4-week recovery", "setting": "in vivo; both, Sprague-Dawley, rat, in vivo, po, 91 days", "value": "≥ 75", "unit": "mg/kg/day"}, {"measurement": "NOAEL at 91 days", "setting": "in vivo; both, rat, in vivo, po", "value": 30, "unit": "mg/kg/day"}, {"measurement": "IC50", "setting": "CYP 2C19", "value": 6.8, "unit": "µM"}, {"measurement": "Ki", "setting": "Adrenergic α1D (H)", "value": 1100, "unit": "nM"}, {"measurement": "Protein binding", "setting": "Protein binding, human", "value": 99.2, "unit": "% bound"}]}
{"compound": "CNC(=O)c1ccccc1Nc1nc(Nc2ccc3c(c2OC)CCCC(N2CCN(CCO)CC2)C3)ncc1Cl.Cl", "note": "(centres unmarked) [CEP-37440 (HCl salt), 2-(5-Chloro-2-{6-[4-(2-hydroxy-ethyl)-piperazin-1-yl]-1-methoxy-6,7,8,9-tetrahydro-5H-benzocyclohepten-2-ylamino}-pyrimidin-4-ylamino)-N-methyl-benzamide hydrochloride]", "values": [{"measurement": "anti-tumor efficacy", "setting": "[12]; 30 mg/kg bid po", "value": "tumor stasis and partial regressions"}, {"measurement": "anti-tumor efficacy", "setting": "[12]; 55 mg/kg qd po", "value": "tumor stasis and partial regressions"}, {"measurement": "tolerability, body weight", "setting": "[12]; 12 days treatment", "value": "well tolerated with no overt toxicity or compound-related weight loss (FIGS. 14 and 15), except at 30 mg/kg, bid dose"}, {"measurement": "anti-tumor efficacy", "setting": "[13]; 30 mg/kg bid po", "value": "tumor regressions"}, {"measurement": "anti-tumor efficacy", "setting": "[13]; 30 mg/kg, qd, po", "value": "tumor regressions"}, {"measurement": "anti-tumor efficacy", "setting": "[13]; 55 mg/kg qd po", "value": "tumor regressions"}, {"measurement": "tolerability, body weight", "setting": "[13]; 12 days treatment", "value": "well tolerated with no overt toxicity or compound-related weight loss"}]}
